# Assay: surface tension of components
# Format: physicochemical
row,Compound,surface tension σ [mNm]
1,Fc1c(F)c(F)c2c(c1F)c(F)c(F)c1c(F)c(F)c(F)c(F)c12 [perfluorophenanthrene],19
2,CC[N+]1(CC)CC[N+](CC)(CC)CC1.O=C([O-])C(F)(F)C(F)(F)C(F)(F)C(F)(F)C(F)(F)C(F)(F)C(F)(F)F.O=C([O-])C(F)(F)C(F)(F)C(F)(F)C(F)(F)C(F)(F)C(F)(F)C(F)(F)F [tetraethylpiperazinium salt of perfluorooctanoic acid],15.9
3,perfluoroalkylethanol oxethylate,19
